Where a name gives a salt, the structure may show the parent alone. Read-outs that look alike come from different tables or passages of the source.
System: HBV rcDNA in HepDE19 cells
Experiment: HepDE19 assay with bDNA quantitation of HBV rcDNA
Assay type: cell-based, hepatitis B virus (HBV)
Details: Hepatitis B virus, HepDE19, 168 h
Protocol: HepDE19 Assay with bDNA Quantitation of HBV rcDNA:
HepDE19 cell culture system is a HepG2 (human hepatocarcinoma) derived cell line that supports HBV DNA replication and cccDNA formation in a tetracycline (Tet)-regulated manner and produces HBV rcDNA and a detectable reporter molecule dependent on the production and maintenance of cccDNA (Guo, et al., 2007, J. Virol. 81:12472-12484).
HepDE19 (50,000 cells/well) were plated in 96 well collagen-coated tissue-culture treated microtiter plates in DMEM/F12 medium supplemented with 10% fetal bovine serum, 1% penicillin-streptomycin and 1 μg/mL tetracycline and incubated in a humidified incubator at 37° C. and 5% CO2 overnight. Next day, the cells were switched to fresh medium without tetracycline and incubated for 4 hours at 37° C. and 5% CO2. The cells were treated with fresh Tet-free medium with compounds at concentrations starting at 25 μM and a serial, ½ log, 8-point, titration series in duplicate. The final DMSO concentration in the assay was 0.5%. The plates were incubated for 7 days in a humidified incubator at 37° C. and 5% CO2. Following a 7 day-incubation, the level of rcDNA present in the inhibitor-treated wells was measured using a Quantigene 2.0 bDNA assay kit (Affymetrix, Santa Clara, Calif.) with HBV specific custom probe set and manufacturers instructions. Concurrently, the effect of compounds on cell viability was assessed using replicate plates, plated at a density of 5,000 cells/well and incubated for 4 days, to determine the ATP content as a measure of cell viability using the cell-titer glo reagent (CTG; Promega Corporation, Madison, Wis.) as per manufacturer's instructions. The plates were read using a Victor luminescence plate reader (PerkinElmer Model 1420 Multilabel counter) and the relative luminescence units (RLU) data generated from each well was calculated as % inhibition of the untreated control wells and analyzed using XL-Fit module in Microsoft Excel to determine EC50 and EC90 (bDNA) and CC50 (CTG) values using a 4-parameter curve fitting algorithm.
Representative compounds of the invention were tested for their ability to inhibit formation of relaxed circular DNA (rcDNA) in a HepDE19 assay, as described elsewhere herein.

[1] = HepDE19 cells, 7 day incubation, rcDNA by Quantigene 2.0 bDNA assay, read-out: DE-19 bDNA EC50
[2] = read-out: DE-19 bDNA EC50, HepDE19 cells, 7 day incubation, rcDNA by Quantigene 2.0 bDNA assay

Compound	EC50 [1]	EC50 [2]
COc1cnc(N[C@H]2CCOc3c(C(=O)Nc4ccc(F)c(F)c4)cccc32)nc1 [Compound 55, (S)—N-(3,4-Difluorophenyl)-4-((5-methoxypyrimidin-2-yl)amino)chromane-8-carboxamide]	2 µM	
O=C(Nc1ccc(F)c(F)c1)c1c(F)ccc2c1OCC[C@@H]2Nc1ncccn1 [Compound 56, (S)—N-(3,4-Difluorophenyl)-7-fluoro-4-(pyrimidin-2-ylamino)chromane-8-carboxamide]	2.5 µM	
Cc1ccnc(N[C@H]2CCOc3c(C(=O)Nc4ccc(F)c(F)c4)cccc32)n1 [Compound 57, (S)—N-(3,4-Difluorophenyl)-4-((4-methylpyrimidin-2-yl)amino)chromane-8-carboxamide]	3.4 µM	
Cc1cnc(N[C@H]2CCOc3c(C(=O)Nc4ccc(F)c(F)c4)cccc32)nc1 [Compound 58, (S)—N-(3,4-Difluorophenyl)-4-((5-methylpyrimidin-2-yl)amino)chromane-8-carboxamide]	9.7 µM	
O=C(N[C@H]1CCOc2c1ccc(F)c2C(=O)Nc1ccc(F)c(F)c1)OCc1ccccn1 [Compound 59, (S)-Pyridin-2-ylmethyl (8-((3,4-difluorophenyl)carbamoyl)-7-fluorochroman-4-yl)carbamate]	5.3 µM	
O=C(Nc1ccc(F)c(F)c1)c1ccc(F)c2c1OCCC2=O [Compound 60, N-(3,4-difluorophenyl)-5-fluoro-4-oxochromane-8-carboxamide]	3.9 µM	
C[C@H](OC(=O)N[C@H]1CCOc2c(C(=O)Nc3ccc(F)c(F)c3)cccc21)c1ccccn1 [Compound 61, (S)-1-(Pyridin-2-yl)ethyl ((S)-8-((3,4-difluorophenyl)carbamoyl)chroman-4-yl)carbamate hydrochloride]		4 µM
O=C(Nc1ccc(F)c(F)c1)c1cccc2c1OCCC2c1ccccc1 (centres unmarked) [Compound 62, N-(3,4-difluorophenyl)-4-phenylchromane-8-carboxamide]	4.9 µM	
O=C(Nc1ccc(F)c(F)c1)c1cccc2c1OCCC2c1cccnc1 (centres unmarked) [Compound 63, N-(3,4-difluorophenyl)-4-(pyridin-3-yl)chromane-8-carboxamide]	14 µM	
O=C1CCOc2c1ccc(F)c2C(=O)Nc1ccc(F)c(F)c1 [Compound 64, N-(3,4-difluorophenyl)-7-fluoro-4-oxochromane-8-carboxamide]	3.8 µM	
O=C1CCOc2c1ccc(F)c2C(=O)Nc1ccc(F)c(Cl)c1 [Compound 65, N-(3-chloro-4-fluorophenyl)-7-fluoro-4-oxochromane-8-carboxamide]	4.1 µM	
O=C(N[C@H]1CCOc2c(C(=O)Nc3ccc(F)c(F)c3)cccc21)OCc1ccncn1 [Compound 66, Pyrimidin-4-ylmethyl (S)-(8-((3,4-difluorophenyl)carbamoyl)chroman-4-yl)carbamate]	3.5 µM	
O=C(Nc1ccc(F)c(F)c1)c1cccc2c1OCC[C@@H]2Nc1ccncn1 [Compound 67, (S)—N-(3,4-Difluorophenyl)-4-(pyrimidin-4-ylamino)chromane-8-carboxamide]	3.6 µM	
O=C(Nc1ccc(F)c(F)c1)c1cccc2c1OCCC2c1ccccn1 (centres unmarked) [Compound 68, N-(3,4-difluorophenyl)-4-(pyridin-2-yl)chromane-8-carboxamide]	3.4 µM	
O=C(Nc1ccc(F)c(F)c1)c1cccc2c1OCCC2c1ncccn1 (centres unmarked) [Compound 71, N-(3,4-difluorophenyl)-4-(pyrimidin-2-yl)chromane-8-carboxamide]	12 µM	
Cn1ccc(COC(=O)N[C@H]2CCOc3c(C(=O)Nc4ccc(F)c(F)c4)cccc32)n1 [Compound 72, (1-Methyl-1H-pyrazol-3-yl)methyl (S)-(8-((3,4-difluorophenyl)carbamoyl)chroman-4-yl)carbamate]	2 µM	
COC(=O)N[C@H]1CCOc2c1ccc(F)c2C(=O)Nc1ccc(F)c(Cl)c1 [Compound 74, (S)-Methyl (8-((3-chloro-4-fluorophenyl)carbamoyl)-7-fluorochroman-4-yl)carbamate]		1.9 µM
CNC(=O)N[C@H]1CCOc2c1ccc(F)c2C(=O)Nc1ccc(F)c(Cl)c1 [Compound 75, (S)—N-(3-Chloro-4-fluorophenyl)-7-fluoro-4-(3-methylureido)chromane-8-carboxamide]		3.2 µM

Compound	EC50 [1]	EC50 [2]
O=C(N[C@H]1CCOc2c1ccc(F)c2C(=O)Nc1ccc(F)c(Cl)c1)OCc1ccccn1 [Compound 76, (S)-Pyridin-2-ylmethyl (8-((3-chloro-4-fluorophenyl)carbamoyl)-7-fluorochroman-4-yl)carbamate]	1.9 µM	
O=C1CCOc2c1ccc(Cl)c2C(=O)Nc1ccc(F)c(F)c1 [Compound 77, 7-chloro-N-(3,4-difluorophenyl)-4-oxochromane-8-carboxamide]	23 µM	
O=C(Nc1ccc(F)c(F)c1)c1ccc(Cl)c2c1OCCC2=O [Compound 78, 5-chloro-N-(3,4-difluorophenyl)-4-oxochromane-8-carboxamide]	7.3 µM	
O=C(Nc1ccc(F)c(Cl)c1)c1ccc(F)c2c1OCCC2=O [Compound 79, N-(3-chloro-4-fluorophenyl)-5-fluoro-4-oxochromane-8-carboxamide]	5.3 µM	
COc1ccnc(COC(=O)N[C@H]2CCOc3c(C(=O)Nc4ccc(F)c(F)c4)cccc32)c1 [Compound 80, (4-Methoxypyridin-2-yl)methyl (S)-(8-((3,4-difluorophenyl)carbamoyl)chroman-4-yl)carbamate hydrochloride]		2.7 µM
O=C(N[C@H]1CCOc2c(C(=O)Nc3ccc(F)c(F)c3)cccc21)OCc1cnccn1 [Compound 81, Pyrazin-2-ylmethyl (S)-(8-((3,4-difluorophenyl)carbamoyl)chroman-4-yl)carbamate]	2.4 µM	
O=C(N[C@H]1CCOc2c(C(=O)Nc3ccc(F)c(F)c3)cccc21)OCc1cc(Cl)ccn1 [Compound 82, (4-Chloropyridin-2-yl)methyl (S)-(8-((3,4-difluorophenyl)carbamoyl)chroman-4-yl)carbamate hydrochloride]		3.2 µM
COC(=O)N[C@H]1CCOc2c1ccc(Cl)c2C(=O)Nc1ccc(F)c(F)c1 [Compound 83, Methyl (S)-(7-chloro-8-((3,4-difluorophenyl)carbamoyl)chroman-4-yl)carbamate]		5.4 µM
CNC(=O)N[C@H]1CCOc2c1ccc(Cl)c2C(=O)Nc1ccc(F)c(F)c1 [Compound 84, (S)-7-Chloro-N-(3,4-difluorophenyl)-4-(3-methylureido)chromane-8-carboxamide]		11 µM
O=C(N[C@H]1CCOc2c(C(=O)Nc3ccc(F)c(F)c3)cccc21)OCc1ccc(Cl)cn1 [Compound 88, (5-Chloropyridin-2-yl)methyl (S)-(8-((3,4-difluorophenyl)carbamoyl)chroman-4-yl)carbamate hydrochloride]		13 µM
O=C(Nc1ccc(F)c(F)c1)c1ccc(F)c2c1OCC[C@@H]2Nc1ncccn1 [Compound 89, (S)—N-(3,4-Difluorophenyl)-5-fluoro-4-(pyrimidin-2-ylamino)chromane-8-carboxamide]	1.1 µM	
O=C(N[C@H]1CCOc2c1ccc(Cl)c2C(=O)Nc1ccc(F)c(F)c1)OCc1ccccn1 [Compound 90, Pyridin-2-ylmethyl (S)-(7-chloro-8-((3,4-difluorophenyl)carbamoyl)chroman-4-yl)carbamate]	8.4 µM	
COC(=O)N[C@H]1CCOc2c(C(=O)Nc3ccc(F)c(Cl)c3)ccc(F)c21 [Compound 91, Methyl (S)-(8-((3-chloro-4-fluorophenyl)carbamoyl)-5-fluorochroman-4-yl)carbamate]		0.2 µM
COC(=O)N[C@@H]1CCOc2c(C(=O)Nc3ccc(F)c(Cl)c3)ccc(F)c21 [Compound 92, (R)-Methyl (8-((3-chloro-4-fluorophenyl)carbamoyl)-5-fluorochroman-4-yl) carbamate]		4.6 µM
O=C(N[C@H]1CCOc2c(C(=O)Nc3ccc(F)c(F)c3)ccc(F)c21)OCc1ccccn1 [Compound 93, Pyridin-2-ylmethyl (S)-(8-((3,4-difluorophenyl)carbamoyl)-5-fluorochroman-4-yl)carbamate]	0.85 µM	
CN1CCC(COC(=O)N[C@H]2CCOc3c(C(=O)Nc4ccc(F)c(F)c4)cccc32)CC1 [Compound 95, (1-methylpiperidin-4-yl)methyl (S)-(8-((3,4-difluorophenyl)carbamoyl)chroman-4-yl)carbamate]	24 µM	
C[C@@H](OC1CCOc2c(C(=O)Nc3ccc(F)c(F)c3)cccc21)c1ccncc1 (stereo partly drawn) [Compound 96, N-(3,4-difluorophenyl)-4-((R)-1-(pyridin-4-yl)ethoxy)chromane-8-carboxamide]	15 µM	

Reference: US11001564B2, “Substituted chromane-8-carboxamide compounds and analogues thereof, and methods using same” (priority 2016, dated 2021)
